Data: patent US11661259B2, “Apparatus, arrangement and method for providing skin care ingredients” (MEMORIAL SLOAN-KETTERING CANCER CENTER, priority 2013, dated 2023)

Experiments:
[1] = Decay of vitamin stored in liquid solution (loss of initial activity); settings: dissolved in a liquid solution, stored in a closed and dark container, after 60 days
[2] = Time required to completely dissolve Vitamin C powder in water; format: physicochemical
Excerpt: 1. Determine the amount of time required to completely dissolve Vitamin C powder with 12 to 15 cc of water. In general, it requires 45 to 120 seconds to completely dissolve 1% to 15% Vitamin C powder in water.

| loss of initial activity [1] [%] | Time to completely dissolve ([2]; 1% to 15% Vitamin C powder in water) [s] | Time to completely dissolve ([2]; 1 wt % Vitamin C, 151 mg in 15 g water) [s] | Time to completely dissolve ([2]; 5 wt % Vitamin C, 526 mg in 12 g water) [s] | Time to completely dissolve ([2]; 10 wt % Vitamin C, 1107 mg in 12 g water) [s] | Time to completely dissolve ([2]; 15 wt % Vitamin C, 1765 mg in 12 g water) [s] | Time to completely dissolve ([2]; 20 wt % Vitamin C, 2496 mg in 12 g water) [s] | Molecule |
| --- | --- | --- | --- | --- | --- | --- | --- |
| ~35 | – | – | – | – | – | – | tocopherol [Vitamin E] |
| ~72 | 45 to 120 | 60 | 45 | 75 | 120 | 210 | O=C1O[C@H]([C@@H](O)CO)C(O)=C1O [Vitamin C, L-ascorbic acid] |
